Reference: patent US10131558B1, “Compositions, methods, and/or systems for managing sulfide” (priority 2016, dated 2018)
Several values for one entry are separate records, joined by “and”; a condition that tells them apart may be missing. Identical values can stand only once.

Legend:
[1] = Treatment of 2,4-D with hydrogen peroxide alone against hydrogen peroxide/Fe-gluconate; conditions: 250 mL; 200 microliters 50% hydrogen peroxide, plus 200 microliters Fe-GLC in the combination; after four hours; untreated 130 ppb
Description: The dissolved sodium bicarbonate increased the alkalinity of the water somewhat, causing the water to mimic a natural water source. Two hundred fifty milliliters of this solution was distributed into three 500 mL Erlenmeyer flasks. […] The flasks were then covered with parafilm and swirled to facilitate mixing of the solution. After four hours a sample from each flask was taken to the pesticide lab at Virginia Tech and analyzed by gas chromatography (GC) for 2,4-D. The findings were as follows: […]

[2] = Treatment of groundwater contaminated with BTEX and MtBE; conditions: 250 mL groundwater; 1 mL 35% H2O2, plus 1 mL Fe-GLC in the combination; untreated 56 ppb
[3] = as above; conditions: 250 mL groundwater; 1 mL 35% H2O2, plus 1 mL Fe-GLC in the combination; untreated 34 ppb
[4] = as above; conditions: 250 mL groundwater; 1 mL 35% H2O2, plus 1 mL Fe-GLC in the combination; untreated 171 ppb
[5] = as above; conditions: 250 mL groundwater; 1 mL 35% H2O2, plus 1 mL Fe-GLC in the combination; untreated 159 ppb
[6] = as above; conditions: 250 mL groundwater; 1 mL 35% H2O2, plus 1 mL Fe-GLC in the combination; untreated 27 ppb
[7] = system: Fecal Coliform; assay: Disinfecting wastewater, peroxide alone vs Fe-GLC and peroxide; format: cell-based; conditions: 20 mg H2O2 (50 microliters 35%), plus 50 microliters Fe-GLC in the combination; after twenty minutes; control 2200
From the text: A sample of wastewater was collected from the influent of the chlorine contact chamber of the York River Wastewater Treatment Plant in Yorktown, Va. The samples were divided equally into three clean 500 milliliter sample containers from the single sample taken. The first sample served as a control and was set aside. […] Each sample was capped and shaken briefly to mix the contents. After twenty minutes, sub-samples were taken from each vessel and pored into fecal coliform sample containers for analysis at the Hampton Roads Sanitary District lab.

[8] = Vapor suppression spray test, hydrogen sulfide above test water; conditions: no treatment 18
Description: A solution of ferric glucontate treatment was prepared using 2.0 M ferric gluconate solution along with distilled water to achieve a final concentration of ferric gluconate at 5 mg/ml, as ferric iron.
A five gallon bucket containing five liters of de-ionized water was infused with 10 parts per million of total sulfide using technical grade anhydrous Sodium Hydrosulfide. The pH of the water was then adjusted to a pH of 7.0 using a dilute solution of hydrochloric acid.
After cleaning the bucket for control testing for each study, five additional liters of de-ionized water was added and the same quantity of sulfide was infused into the fresh water and the pH adjusted to 7.0.

[9] = 10 min; 33 mg/l H2O2 (+44 μg/l VTX as total iron in the combination)
Description: This step was seen to minimize the amount of natural oxidation of added sulfide by sulfide-oxidizing bacteria present in the biosolids. Sodium hydrosulfide was added to 35 liters of wastewater to achieve a starting total sulfide concentration of ˜10 mg/l sulfide. The pH was adjusted within the aquarium to a pH of 7.0 using a dilute solution of hydrochloric acid.
The Odalog was affixed using a ring stand to achieve a one centimeter gap between the intake of the Odalog and the surface of the aquarium. […] Wastewater was pulled from near the bottom of the aquarium using a Watson-Marlow Peristaltic Pump capable of delivering 0.001-190 mls/minute. […] The volume of the line prior to discharge equated to ˜100 milliliters. A delivery spray system was mimicked by drilling small holes (0.35 mm) into 0.25 inch tubing distributed evenly above the aquarium. […] A filtration devise was installed in-line to minimize particle clogging with the intake in the tank above the settled biosolids to aid in this process.
No catalyst was added along with the peroxide in Treatment 3.
Testing for total sulfide in solution was conducted prior to beginning treatment at three depths.

[10] = Treatment of sulfides in municipal wastewater using ferric chelants and hydrogen peroxide
Description: Total sulfides were tested for using Standard Methods 4500-S^2− D with a Hach Chemical Company (of Loveland, Colo.) DR 2000 Spectrophotometer and reagents from Hach specific for this particular test. To keep total sulfides within the range of the test, samples were diluted with distilled water prior to conducting the test as per Hach instructions.
Tests for total sulfide were conducted after 5, 15, and 30 minutes of contact time on each of the seven liter test jars.

[11] = after 2 days; cited from earlier work
[12] = system: total heterotrophic bacteria; assay: Disinfection of wastewater using chelated iron compounds; format: cell-based; conditions: 30 min, raw average 18,188 CFUs
Description: The clarified supernatant was then pored off of the top of the settled solids within the sample. The supernatant was then mixed and four samples were collected to determine untreated heterotrophic bacteria counts. […] were dissolved in distilled water at 0.4334M. Ferric chloride was added in amounts to achieve saturation of chelant sites on the respective chelants. […] Twenty individual liter samples of supernatant were then decanted from the well-mixed wastewater sample for testing. Four chelated iron products with peroxide were tested at two test concentrations and compared to samples receiving peroxide only and iron chelate only. […] Samples were then decanted to sterile sample containers containing sodium thiosulfate to stop the oxidation process and preserve the sample. Samples were then placed in a refrigerator until all samples were finished. Samples were packaged in a standard cooler with ice packs and sent via overnite delivery to ProChem Labs in Lynchburg, Va. for analysis for total heterotrophic bacteria counts.

[13] = Treatment of sulfides in municipal wastewater using ferric chelants and ozone; conditions: ozone ~13.4 ppm, 4 ppm ferric chelant where used; for sulfide remaining: start 13.70
From the text: The raw wastewater received a dose of 4 ppm of each of the four ferric chelants (mass calculated as chelant) just prior to addition of ozone.
Ozone addition was accomplished using an ozone generator from Ozone Solutions, Sioux Center, Iowa. The generator was capable of generating up to 2 grams per hour of ozone. Injection of ozone into the wastewater was accomplished using an injection system from Ozone Solutions called the H2O-Mini. The unit is designed to treat from 1.5 to 5.7 liters per minute of wastewater. The unit was set up to deliver 6.7 mg/minute of dissolved ozone (assumed the 80% efficiency of dissolution noted by the manufacturer) to wastewater passing the injection nozzle within the H2O-mini. Each test was designed for maximum wastewater flow through the H2O-mini (5.7 liters/min).
An objective of the study will be to treat most, but not all, of the sulfide present within the individual test samples in order to determine which treatment was more efficient than the others.
Samples were taken over twenty minutes of contact time from the recirculation vessel after ozonation. For each of the four ferric chelant studies, chelants were added to the wastewater recirculation vessels just prior to starting the injection of ozone and recirculation of the liquids. The injection of ozone was applied over the prescribed period and sampled as before in the ozone only experiment.

[14] = Full scale lagoon treatment system (spray)
From the text: The system was designed to treat sulfide and recirculate sulfide-free wastewater from the lagoon in a continuous manner and reuse the treated wastewater in such a manner as to gain substantially complete control of hydrogen sulfide escaping to the atmosphere. […] The capping of the lagoon was accomplished by spray applying sulfide-free treated wastewater using a spray application system specifically designed to gain complete or nearly complete coverage of the surface area of the lagoon. Importantly, the spray application system imparted minimal mixing to the untreated surface of the lagoon. Any significant mixing of the surface water within the lagoon could be problematic for hydrogen sulfide release. Gently spray-applying sulfide-free water over the lagoon served to effectively cap the lagoon with minimal mixing, thus preventing gaseous sulfide from escaping to the atmosphere. Further, by assuring that the treated wastewater returning to the lagoon surface contained excess oxidation treatment chemicals, any fugitive sulfide that might have risen through the cap could be mitigated.
The water proceeding eastward turns north at the end of the lagoon and travelling back westward where it is pumped out of the lagoon at the northwest end.
This system is primarily driven by a large electrically powered Cornell pump denoted by the “Pump” box in FIG. 5. The pump sits on a 40′ wide elevated dyke that runs down the center of the lagoon. Water is pumped out of the northwest side of the lagoon via a 12″ HDPE “Pump Intake” pipe and flows through the Cornell pump and then down the dyke in the center of the lagoon via an 8″ HDPE main pipe. […] These injection locations are designated by the “1” and “2” circles in FIG. 5. T valves were installed into the 8″ main line, redirecting a portion of the water from the 8″ main pipe out to each of 27 different floats via 2″ HDPE piping. The Nelson F100 series Big Gun spray irrigation heads were mounted on the floats and directly connected to the 2″ HDPE piping. Around 47 PSI of water pressure was constantly maintained to allow sufficient working pressure for each of the 27 spray irrigation heads. The chemical being dosed into the line via the Verdeflex pumps was carefully calculated to ensure sufficient Ferric Gluconate and Hydrogen Peroxide were present in the line to not only ensure substantially complete destruction of all sulfide in the line but to provide a surplus of chemicals for additional treatment upon contact with any sulfides in the pond. […]
Prior to treatment initiation, samples were taken starting on Mar. […] A quantity of 45 gallons per hour (540 gallons per 12 hour period) of 50% Peroxide and 20 gallons per hour of Ferric Gluconate (240 gallons per 12 hour period) were pumped into the lagoon via the sprayer system.

[15] = Full scale lagoon treatment system using eductors; conditions: across all stations, eductor system, September 2016
Description: Due to concerns about fugitive airborne spray entering the environment and, potentially, drifting onto a nearby public road, SMBSC management requested an underwater eductor system be installed to replace the Nelson spray irrigation system described previously. Therefore, a full scale trial using a commercially available surface chemical application system and method was tested at the SMBSC. The objective of the test was to determine if a system designed to apply oxidation treatment chemicals just below the surface of the large wastewater lagoon at SMBSC was as effective as the spray system that minimized surface mixing. It was surmised that the system would achieve similar results to the spray application approach due to minimal disturbance to lagoon subsurface wastewater. The eductor system slowly spun in a circular pattern similar to the circular pattern of the spray system. The Serfilco eductor system pulled wastewater from the contaminated lagoon using the identical system of treatment used for the Nelson spray system. The only variation was the application mechanism of eduction versus spray. The eduction system relied on the force of the wastewater flowing back into the eductor distribution arms to force the circular motion of the arms distributing oxidation chemicals. All aspects of the system were the same except for the distribution system. […]

[16] = SMBSC pilot demonstration, lagoon spray system; conditions: Trial 1, samplings T2-T5
From the text: The exemplary system and method was designed to utilize 1.7 million gallons per day of the 35 to 40 million gallons of high strength wastewater within the lagoon as a carrier for treatment chemistry. Flow into the lagoon varied. Influent was mostly high organic strength wastewater. A typical daily flow rate approximated 500,000 gallons.
The utilized system and method sought to efficiently cover as much of the lagoon surface with treated wastewater containing excess quantities of treatment chemistry as practically possible. For spray nozzles, the system and method utilized 100 series Big Gun sprinklers (available from Nelson Irrigation Corporation of Walla Walla, Wash.) oriented in a pattern to assure maximum coverage of targeted surface area of the lagoon. […] The pressure varied depending on the demand of the spray nozzles and surface coverage demand. Further, the effectiveness relied somewhat on delivery of sufficient volume of treated wastewater containing excess treatment chemistry to the surface of the lagoon to adequately suppress sulfide at or near the surface of the lagoon. […] Treatment chemistry for the returned treated wastewater was dosed to treat sulfide within the uptake wastewater and over dosed with added treatment chemistry to accommodate the expected need for treatment within the surface water of the receiving lagoon. […] This dosage application assumed these ratios for each hour of continuous treatment.
The method used for this pilot study for dosing was estimated by taking surface and mid-depth samples of the untreated lagoon and testing for sulfide.
Station D1 referred to a dam where water flowed down through the dam into the remaining run of the retention lagoon.

[17] = spray system on, April 2016, date by row, same dosage

OO [H2O2, hydrogen peroxide]
2,4-D [1]: 230 ppb | Benzene after treatment [2]: 15.1 ppb | Ethylbenzene after treatment [3]: 13.0 ppb | Toluene after treatment [4]: 55.7 ppb | Xylenes after treatment [5]: 67.0 ppb | MtBE after treatment [6]: 15.7 ppb | Fecal Coliform [7]: 53 cfu/100 mL | H2S reading after 10 minutes ([8]; 1 ml of 15 mg/ml H2O2): 6 ppm | H2S reading after 10 minutes ([8]; 3 ml of 15 mg/ml H2O2): 4 ppm | H2S reading after 10 minutes ([8]; 5 ml of 15 mg/ml H2O2 sprayed on 5 L water with 10 ppm total sulfide, pH 7.0): 3 ppm | H2S Above H2O [9]: 17 PPM | Total Sulfide 1 CM Depth [9]: 8.5 mg/L | Total Sulfide 2 CM Depth [9]: 9.1 mg/L | Total Sulfide 3 CM Depth [9]: 9.3 mg/L | Percentage of Sulfide Treated After 30 Minutes ([10]; 1.5:1.0 peroxide to sulfide, Dose 3, 38.7 ppm H2O2 only (control run of the chelant named in the row)): 59.0 and 46.5 and 56.3 and 57.0 and 55.5 and 54.7 | Percentage of Sulfide Treated After 30 Minutes ([10]; 2.5:1.0 peroxide to sulfide, Dose 3, 105.8 ppm H2O2 only (control run of the chelant named in the row)): 69.0 and 69.5 and 67.8 and 66.4 and 44.4 and 69.3 and 70.2 | sulfide reduction after 15 minutes, average ([10]; hydrogen peroxide alone, 2.5:1.0 peroxide to sulfide): 52% | sulfide treatment after 15 minutes ([10]; peroxide alone, 37.8 ppm level): 42.9%

O=C([O-])[C@H](O)[C@@H](O)[C@H](O)[C@H](O)CO.[Na+] [Sodium gluconate, sodium gluconate]
readily biodegradable [11]: 98%

ferric gluconate [Fe-GLC]
Test 1 CFUs/ml 19.8 ppm H2O2 6 ppm Fe-Chelant [12]: 98 CFUs/ml | Test 2 CFUs/ml 39.6 ppm H2O2 12 ppm Fe-Chelant [12]: 28 CFUs/ml | Test 3 CFUs/ml 12 ppm Fe-Chelant ([12]; chelant alone, no H2O2): 22,600 CFUs/ml | Overall total percentage of sulfide reduction [13]: 90% | Overall total percentage of sulfide reduction ([13]; listed as Fe-Gluconate): 90% | sulfide remaining ([13]; 5 min contact): 3.40 ppm | sulfide remaining ([13]; 10 min contact): 2.80 ppm | sulfide remaining ([13]; 20 min contact): 1.40 ppm | average sulfide measurement ([14]; one month, five sampling locations, spray system, untreated average 1.06 mg/l): 0.06 mg/L | Aqueous Sulfide, Station 1 (surface) [14, 17]: 0.00 mg/L | Aqueous Sulfide, Station 4 (surface) [14, 17]: 0.00 mg/L | sulfide in wastewater spray upon exiting the spray nozzles ([14]; with proper dosage of oxidation chemicals): 0.00 mg/L | average sulfide measurement [15]: 2.14 mg/L | Aqueous Sulfide, location 1S ([16]; same dosage, T1 before treatment 1.35): 0 ppm and 0.00 ppm | Gaseous Sulfide downwind at lagoon edge, Station 2 [16]: 0.00 ppm | Gaseous Sulfide downwind at lagoon edge, Station 3 [16]: 0.00 ppm | sulfide reduction after 15 minutes ([10]; 20 ppm chelant and 105.8 ppm hydrogen peroxide): 86.8%
